# Assay results: US20260209247A1, “Substituted Tricyclic Compounds” (Lupin Limited, priority 2019, published 2026)
# pIC50: −log10 of the molar value.
# Columns and labels:
# [1] = test system: pERK after EGF stimulation in DLD1 cells; assay: ERK phosphorylation assay (alphascreen pERK); format: cell-based; conditions: Homo sapiens, DLD-1, 2 h compound, 200 ng/ml hEGF for 5 minutes, read-out: ERK phosphorylation inhibition IC50
# In short: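 DLD1 cells pretreated with test compounds for 2 h, then stimulated with 200 ng/ml hEGF for 5 min. Lysates assayed by AlphaScreen SureFire for ERK1/2 p-T202/Y204, read after 2 h at 25–28 °C. % inhibition relative to the stimulated-minus-unstimulated vehicle window.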
# [2] = biological target: T1, protein-protein interaction between hSOS1 and hKRASG12C (Homo sapiens, UniProt Q07889); assay: KRAS-SOS1 interaction assay (HTRF); format: binding; conditions: GST-hSOS1 564-1049aa, HIS-hKRASG12C, read-out: KRAS-SOS1 Interaction inhibition IC50
# T1 construct: GST-hSOS1, 564-1049aa expressed and purified in-house
# T1 sequence (Q07889 564-1049): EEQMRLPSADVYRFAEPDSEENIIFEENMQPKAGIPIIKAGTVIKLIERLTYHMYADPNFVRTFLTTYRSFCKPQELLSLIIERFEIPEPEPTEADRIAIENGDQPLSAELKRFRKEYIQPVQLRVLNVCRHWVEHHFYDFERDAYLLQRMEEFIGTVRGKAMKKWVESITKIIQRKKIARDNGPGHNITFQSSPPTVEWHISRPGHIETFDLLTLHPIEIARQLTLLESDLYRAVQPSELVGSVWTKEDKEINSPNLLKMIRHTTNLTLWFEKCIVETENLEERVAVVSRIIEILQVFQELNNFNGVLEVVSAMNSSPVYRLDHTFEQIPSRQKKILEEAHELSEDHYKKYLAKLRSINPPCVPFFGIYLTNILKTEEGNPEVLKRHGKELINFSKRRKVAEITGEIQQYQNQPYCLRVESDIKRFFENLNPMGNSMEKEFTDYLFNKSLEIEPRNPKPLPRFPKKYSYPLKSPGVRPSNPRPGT
# Method: Interaction assay was conducted to evaluate the ability of the compounds to disrupt the protein-protein interactions between hSOS1 and hKRASG12C. Inhibitory effect of compounds on GST-hSOS1, 564-1049aa expressed and purified in-house and HIS-hKRASG12C (R06-32DH, SignalChem) interaction was assessed using HTRF detection technology in biochemical assay. Compounds were pre-incubated with 10-50 nM working solution of hSOS1 per well of a 384 well plate (Perkin Elmer, Cat #6007290) for 10 min at 20° C. in the assay buffer containing 5 mM HEPES, pH 7.4, 150 mM NaCl, 10 mM EDTA, 1 mM DTT, 0.05% BSA fraction V and 0.0025% Igepal. Reaction was initiated by adding 100-300 nM working solution of hKRASG12C in assay buffer. Total assay volume was 15 μL. Reaction was continued for 30-60 min at 20° C. Then detection solution containing MAb Anti-GST-d2 (#61GSTDLA, Cisbio BioAssays) and MAb Anti-HIS-Tb (#61HISTLA, Cisbio BioAssays), all prepared in HTRF detection buffer (#61DB10RDF, Cisbio BioAssays) was added and further incubated for 30-60 min at 20° C. HTRF signal was recorded in PHERAStar microplate reader. Ratio of signal obtained at 665 nm and 620 nm was used to compute the percent inhibition of compound utilizing the following formula: […]
# [3] = biological target: T2, nucleotide exchange on hKRASG12C mediated by hSOS1 (Homo sapiens, UniProt Q07889); assay: Guanine nucleotide exchange assay (GNEA, HTRF); format: biochemical; conditions: HIS-hSOS1 564-1049aa mediated GTP loading onto GST-hKRASG12C 1-169aa, read-out: Guanine nucleotide exchange inhibition IC50
# T2 construct: HIS-hSOS1, 564-1049aa mediated GTP loading onto GST-hKRASG12C; His (N); made in house
# T2 sequence (Q07889 564-1049): T1 sequence (Q07889 564-1049)
# Method: Example-154: Guanine nucleotide exchange assay (GNEA) GNEA assay was conducted to evaluate the effects of compounds on the nucleotide exchange on hKRASG12C mediated by hSOS1. Inhibitory effect of compounds on HIS-hSOS1, 564-1049aa mediated GTP loading onto GST-hKRASG12C, 1-169aa both expressed and purified in-house was assessed using HTRF detection technology in biochemical assay. Compounds were pre-incubated with hSOS1 working solution containing 10-50 nM hSOS1 and 200 nM EDA-GTP-DY-647P1 (Custom manufactured, Jena Biosciences) per well of a 384 well plate (Perkin Elmer, Cat #6007290) for 10 min at 20° C. in the assay buffer containing 10 mM HEPES, pH 7.4, 150 mM NaCl, 5 mM MgCl2, 1 mM DTT, 0.05% BSA fraction V and 0.0025% Igepal. Reaction was initiated by adding working solution of hKRASG12C containing 25-125 nM hKRASG12C and MAb Anti-GST-Tb (#61GSTTLA, Cisbio BioAssays) in assay buffer. Total assay volume was 15 μL. Reaction was continued for 30-60 min at 20° C. HTRF signal was recorded in PHERAStar microplate reader. Ratio of signal obtained at 665 nm and 620 nm was used to compute the percent inhibition of compound as follows.
SMILES,pIC50 [1],pIC50 [2],pIC50 [3]
"Cc1nc(N[C@H](C)c2cccc(C(F)(F)CO)c2F)c2cc3c(cc2n1)O[C@@H](C)C(=O)N3C (single isomer, unassigned) [Compound 30a]",6.70 to 9.00,8.00 to 9.00,7.52 to 9.00
"Cc1nc(N[C@H](C)c2cccc(C(F)(F)CO)c2F)c2cc3c(cc2n1)OC(C)C(=O)N3C (single isomer, unassigned) [Compound 30b]",6.70 to 9.00,8.00 to 9.00,7.52 to 9.00
"Cc1nc(N[C@H](C)c2cccc(C(F)(F)C(C)(C)O)c2F)c2cc3c(cc2n1)O[C@@H](C)C(=O)N3C (single isomer, unassigned) [Compound 31a]",6.70 to 9.00,8.00 to 9.00,7.52 to 9.00
"Cc1nc(N[C@H](C)c2cccc(C(F)(F)C(C)(C)O)c2F)c2cc3c(cc2n1)OC(C)C(=O)N3C (single isomer, unassigned) [Compound 31b]",6.70 to 9.00,8.00 to 9.00,7.52 to 9.00
"Cc1nc(N[C@H](C)c2cccc(C(F)(F)C(C)(C)O)c2F)c2cc3c(cc2n1)OC(C(C)C)C(=O)N3C (single isomer, unassigned) [Compound 32b]",6.70 to 9.00,8.00 to 9.00,7.52 to 9.00
"Cc1nc(N[C@H](C)c2cccc(C(F)(F)CO)c2F)c2cc3c(cc2n1)OC(C)CN3C (single isomer, unassigned) [Compound 36b]",6.70 to 9.00,8.00 to 9.00,7.52 to 9.00
"COCC(C)(O)C(F)(F)c1cccc([C@@H](C)Nc2nc(C)nc3cc4c(cc23)N(C)C(=O)C(C)(C)O4)c1F (single isomer, unassigned) [Compound 53b]",6.70 to 9.00,7.60 to 7.96,7.52 to 9.00
"Cc1nc(NC(C)c2cccc(C(F)(F)C(C)(C)O)c2)c2cc3c(cc2n1)C(C)(C)C(=O)N3C (single isomer, unassigned) [Compound 73, (R/S)-4-((1-(3-(1,1-difluoro-2-hydroxy-2-methylpropyl)phenyl)ethyl)amino)-2,6,8,8-tetramethyl-6,8-dihydro-7H-pyrrolo[2,3-g]quinazolin-7-one]",6.70 to 9.00,8.00 to 9.00,7.52 to 9.00
"Cc1nc(N[C@H](C)c2cccc(C(F)(F)C(C)(O)CO)c2F)c2cc3c(cc2n1)C(C)(C)C(=O)N3C (single isomer, unassigned) [Compound 76a]",6.70 to 9.00,8.00 to 9.00,7.52 to 9.00
"CC[C@]1(C)C(=O)N(C)c2cc3nc(C)nc(N[C@H](C)c4cccc(C(F)(F)C(C)(C)O)c4F)c3cc21 (single isomer, unassigned) [Compound 93a]",6.70 to 9.00,8.00 to 9.00,6.89 to 7.51
"CCC1(C)C(=O)N(C)c2cc3nc(C)nc(N[C@H](C)c4cccc(C(F)(F)C(C)(C)O)c4F)c3cc21 (single isomer, unassigned) [Compound 93b]",6.70 to 9.00,8.00 to 9.00,6.89 to 7.51
"COCC1(C)C(=O)N(C)c2cc3nc(C)nc(N[C@H](C)c4cccc(C(F)(F)C(C)(C)O)c4F)c3cc21 (single isomer, unassigned) [Compound 94a]",6.70 to 9.00,8.00 to 9.00,7.52 to 9.00
"COCC1(C)C(=O)N(C)c2cc3c(N[C@H](C)c4cccc(C(F)(F)C(C)(C)O)c4F)nc(C)nc3cc21 (single isomer, unassigned) [Compound 98a]",6.70 to 9.00,8.00 to 9.00,7.52 to 9.00
"CO[C@]1(C)C(=O)N(C)c2cc3c(N[C@H](C)c4cccc(C(F)(F)C(C)(C)O)c4F)nc(C)nc3cc21 (single isomer, unassigned) [Compound 101a]",6.70 to 9.00,8.00 to 9.00,6.89 to 7.51
"CCOC1(C)C(=O)N(C)c2cc3c(N[C@H](C)c4cccc(C(F)(F)C(C)(C)O)c4F)nc(C)nc3cc21 (single isomer, unassigned) [Compound 121a]",6.70 to 9.00,8.00 to 9.00,6.89 to 7.51
"COCC[C@]1(C)C(=O)N(C)c2cc3c(N[C@H](C)c4cccc(C(F)(F)C(C)(C)O)c4F)nc(C)nc3cc21 (single isomer, unassigned) [Compound 123a]",6.70 to 9.00,8.00 to 9.00,7.52 to 9.00
"COC[C@](C)(O)C(F)(F)c1cccc([C@@H](C)Nc2nc(C)nc3cc4c(cc23)N(C)C(=O)C4(C)C)c1F (single isomer, unassigned) [Compound 127b]",6.70 to 9.00,8.00 to 9.00,7.52 to 9.00
"Cc1nc(N[C@H](C)c2cccc(C(F)(F)C(C)(C)O)c2F)c2cc3c(cc2n1)[C@]1(CCOC1)C(=O)N3C (single isomer, unassigned) [Compound 128a]",6.70 to 9.00,8.00 to 9.00,7.52 to 9.00
"Cc1nc(N[C@H](C)c2cccc(C(F)(F)C(C)(C)O)c2F)c2cc3c(cc2n1)C1(CCOC1)C(=O)N3C (single isomer, unassigned) [Compound 128b]",6.70 to 9.00,8.00 to 9.00,6.89 to 7.51
"Cc1nc(N[C@H](C)c2cccc(C(F)(F)C(C)(O)CN(C)C)c2F)c2cc3c(cc2n1)C(C)(C)C(=O)N3C (single isomer, unassigned) [Compound 129a]",6.70 to 9.00,8.00 to 9.00,7.52 to 9.00
"CNCC(C)(O)C(F)(F)c1cccc([C@@H](C)Nc2nc(C)nc3cc4c(cc23)N(C)C(=O)C4(C)C)c1F (single isomer, unassigned) [Compound 130a]",6.70 to 9.00,8.00 to 9.00,7.52 to 9.00
"COCC[C@@]1(OC)C(=O)N(C)c2cc3c(N[C@H](C)c4cccc(C(F)(F)C(C)(C)O)c4F)nc(C)nc3cc21 (single isomer, unassigned) [Compound 132b]",6.70 to 9.00,8.00 to 9.00,7.52 to 9.00
"COC1(C)C(=O)N(C)c2cc3c(N[C@H](C)c4cccc(C(F)(F)C(C)(O)CN(C)C)c4F)nc(C)nc3cc21 (single isomer, unassigned) [Compound 135]",6.70 to 9.00,8.00 to 9.00,7.52 to 9.00
"Cc1nc(N[C@H](C)c2cc(N)cc(C(F)(F)F)c2)c2cc3c(cc2n1)OCC(=O)N3C [Compound 1, (R)-4-((1-(3-amino-5-(trifluoromethyl)phenyl)ethyl)amino)-2,6-dimethyl-6H-[1,4]oxazino[3,2-g]quinazolin-7(8H)-one]",6.70 to 9.00,8.00 to 9.00,6.89 to 7.51
"Cc1nc(N[C@H](C)c2cccc(C(F)(F)CO)c2F)c2cc3c(cc2n1)OCC(=O)N3C [Compound 2, (R)-4-((1-(3-(1,1-difluoro-2-hydroxyethyl)-2-fluorophenyl)ethyl)amino)-2,6-dimethyl-6H-[1,4]oxazino[3,2-g]quinazolin-7(8H)-one]",6.70 to 9.00,8.00 to 9.00,7.52 to 9.00
